The target of one assay is T1, FLT3 (Homo sapiens, UniProt P36888).
T1 construct: made in house
T1 sequence (P36888 27-993): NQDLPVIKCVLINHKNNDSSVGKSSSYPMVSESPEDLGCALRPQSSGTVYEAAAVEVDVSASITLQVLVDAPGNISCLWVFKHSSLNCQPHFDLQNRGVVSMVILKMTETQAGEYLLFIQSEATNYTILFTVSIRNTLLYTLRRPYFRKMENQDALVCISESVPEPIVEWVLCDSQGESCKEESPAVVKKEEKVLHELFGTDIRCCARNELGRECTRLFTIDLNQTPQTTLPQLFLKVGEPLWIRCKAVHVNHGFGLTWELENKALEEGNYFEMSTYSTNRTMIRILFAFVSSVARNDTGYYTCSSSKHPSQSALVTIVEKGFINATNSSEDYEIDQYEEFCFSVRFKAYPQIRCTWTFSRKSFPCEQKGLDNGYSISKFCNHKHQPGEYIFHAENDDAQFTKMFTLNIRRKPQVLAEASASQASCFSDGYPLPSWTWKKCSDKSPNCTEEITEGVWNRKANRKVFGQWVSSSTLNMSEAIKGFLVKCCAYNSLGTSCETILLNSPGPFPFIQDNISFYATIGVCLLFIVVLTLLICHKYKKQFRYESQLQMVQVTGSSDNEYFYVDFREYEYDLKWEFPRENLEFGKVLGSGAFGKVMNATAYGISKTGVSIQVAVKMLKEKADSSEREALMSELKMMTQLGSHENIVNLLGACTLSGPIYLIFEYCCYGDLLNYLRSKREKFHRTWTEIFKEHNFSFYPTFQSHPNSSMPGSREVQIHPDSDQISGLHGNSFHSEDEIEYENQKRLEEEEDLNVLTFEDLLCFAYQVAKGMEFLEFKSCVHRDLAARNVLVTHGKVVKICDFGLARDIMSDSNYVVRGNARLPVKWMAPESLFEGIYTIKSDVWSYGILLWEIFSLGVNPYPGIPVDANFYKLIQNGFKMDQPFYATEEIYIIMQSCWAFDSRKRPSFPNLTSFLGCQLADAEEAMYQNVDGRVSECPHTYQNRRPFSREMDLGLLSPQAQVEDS
The assay is described as follows: Competition binding assay, FLT3 Kd. The protocol: (§1) Competition binding assays used herein were developed, validated and performed as described in Fabian et al., Nature Biotechnology 2005, 23, 329-336. Kinases were produced as fusions to T7 phage (See, Fabian et al. or WO04/015142) or alternatively, the kinases were expressed in HEK-293 cells and subsequently tagged with DNA for PCR detection (See, WO08/005310). For the binding assays, streptavidin-coated magnetic beads were treated with biotinylated affinity ligands for 30 min at room temperature to generate affinity resins. The liganded beads were blocked with excess biotin and washed with blocking buffer (SeaBlock (Pierce), 1% BSA, 0.05% Tween 20, 1 mM DTT) to remove unbound ligand and to reduce non-specific binding. Binding reactions were assembled by combining kinase, liganded affinity beads, and test compounds in 1× binding buffer (20% SeaBlock, 0.17×PBS, 0.05% Tween 20, 6 mM DTT). Test compounds were prepared as 100× stocks in DMSO and diluted into the aqueous environment. Kds were determined using an eleven point threefold serial dilutions. DMSO or control compounds were was added to control assays lacking a test compound. Primary screen assays were performed in polypropylene 384-well plates in a final volume of 20-40 μL, while Kd determinations were performed in polystyrene 96-well plates in a final volume of 135 μL. The assay plates were incubated at room temperature with shaking for 1 hour to allow the binding reactions to reach equilibrium, and the affinity beads were washed extensively with wash buffer (1×PBS, 0.05% Tween 20) to remove unbound protein. The beads were then resuspended in elution buffer (1×PBS, 0.05% Tween […] non-biotinylated affinity ligand) and incubated at room temperature with shaking for 30 min. The kinase concentration in the eluates was measured by quantitative PCR.

The next assay deals with T2, KIT (Homo sapiens, UniProt P10721).
T2 construct: made in house
The experiment in a line: Competition binding assay, KIT Kd. On the procedure:
as §1

Another assay concerns the target T3, PDGFRβ (Homo sapiens, UniProt P09619).
T3 construct: made in house
The assay is described as follows: Competition binding assay, PDGFRβ Kd. The protocol:
as §1

The next assay deals with M-NFS-60 cells. The assay is described as follows: M-NFS-60 cell proliferation assay (Alamar Blue). Particulars: Mus musculus, read-out: CSF1R M-NFS-60 CTB:IC50. Format: cell-based, mouse. The protocol:
The compounds disclosed herein were tested in an M-NFS-60 cell proliferation assay to determine their cellular potency against CSF1R. M-NFS-60s are mouse monocytic cells that depend on the binding of the ligand M-CSF to its receptor, CSF1R, to proliferate. Inhibition of CSF1R kinase activity will cause reduced growth and/or cell death. This assay assesses the potency of compounds as CSF1R inhibitors by measuring the reduction of Alamar Blue reagent by viable cells.
On day one of the experiment, M-NFS-60 cells were maintained in RPMI complete medium (Omega Scientific) plus 10% FBS supplemented with 20 ng/mL of M-CSF (R&D Systems). 96-well TC-treated, flat bottom plates were seeded at 10,000 cell/well at a volume of 100 μL per well. The cells were cultured overnight at 37° C. under 5% CO2.
On day two, compounds were added to the cells at 9 different concentrations, with half-log intervals alongside a control reference compound serving as a positive control. Final DMSO concentration was kept at 0.5% for a final volume of 200 μL. The compounds were allowed to incubate with the cells for 72 hours at 37° C. under 5% CO2.
On day five of the experiment, 40 μl of Alamar Blue reagent was added to each well and allowed to incubate for 3 hours. Alamar Blue fluorescence was read using SoftMax Pro software at 560 nm (excitation) and 590 nm (emission). IC50s were generated as an average of duplicates and represents the concentration of test compound that achieves 50% inhibition of cellular proliferation compared to control.
(The colour change of resazurin is a common sign of viable cells or microbes.)

Assay [1] addresses T4, CSF1R (Homo sapiens, UniProt P07333). The assay is described as follows: Competition binding assay, CSF1R Kd. More on the design: made in house. On the procedure: as §1
For assay [2], the target named is T4, CSF1R. The experiment in a line: HEK293 CSF1R phosphorylation MSD assay. Format: cell-based. Further details: expressed in transfected cells; host or cells: HEK293. The conditions noted are these: read-out: HEK293 pCSF1R M-CSF MSD:IC50. On the procedure:
The compounds disclosed herein were tested in a CSF1R phosphorylation assay to determine their cellular potency against CSF1R. A HEK293 cell line expressing CSF1R fused to FK506 binding protein (FKBP) as a molecular tag was generated. Inhibition of CSF1R kinase activity will prevent ligand-stimulated autophosphorylation of the CSF1R-FKBP in intact cells. Subsequent cell lysates are assayed in a sandwich ELISA employing the electrochemiluminescent Meso Scale Discovery (MSD) technology for the presence of the phosphorylated (p)CSF1R-FKBP. This assay determines the potency of compounds as CSF1R inhibitors by measuring the reduction in the amount of pCSF1R with increasing doses of compounds added to the cells prior to M-CSF stimulation.
On day one of the experiment, HEK293-CSF1R-FKPB cells, maintained in DMEM, with L-glutamine (Mediatech), 10% FBS, and 100 units/mL Penicillin/Streptomycin, were seeded at 50,000 cell/well in a volume of 100 μL per well in 96-well Cell Bind plates (Costar). The cells were cultured overnight at 37° C. under 5% CO2. To prepare the plates used in the MSD assay, a 330 nM biotin-FK506 (in TBS pH 7.2) solution was added at 30 μL per well to streptavidin-coated 96-well plates (MSD), and incubated overnight at room temperature, shaking at 500 rpm on an orbital shaker.
On day two, compounds diluted in DMSO were added to the cells in duplicate plates at 9 different concentrations with half-log intervals, plus DMSO only control, alongside a reference compound serving as a positive control. Final DMSO concentration was 0.5% in a volume of 200 μL per well. The compounds were allowed to incubate with the cells for 2 h at 37° C. under 5% CO2. At the end of the incubation, human M-CSF (R&D Systems) was added for 5 min to a final concentration of 50 ng/mL to stimulate CSF1R phosphorylation. Cells were lysed for 20 min, and the lysates were applied to the washed, FK506-coated MSD plates, and incubated overnight at 4° C. shaking at 500 rpm.
On day three, the MSD plates were washed, and the captured CSF1R-FKBP was assayed sequentially for phosphorylation using mouse anti-phosphotyrosine antibody (Millipore) and Sulfo-TAG goat anti-mouse IgG antibody (MSD), and detected on a Sector Imager 6000 instrument (MSD).
A single IC50 value for each compound was determined by averaging the IC50s of the duplicates calculated using Igor Pro 6 software, and represents the compound concentration that achieves a 50% inhibition of ligand-induced CSF1R phosphorylation compared to DMSO control.

Where [3] appears, read: 72 hours incubation, M-CSF 20 ng/mL.
The mark [4] stands for this setting: 2 h compound, human M-CSF 50 ng/mL for 5 min.

Our source for the Kd and IC50 values is patent US9938261B2, “Heterocyclic compounds and methods of use thereof” (AMBIT BIOSCIENCES CORPORATION, priority 2011, dated 2018).

Read-outs that look alike come from different tables or passages of the source.

T4 sequence (P07333 20-972): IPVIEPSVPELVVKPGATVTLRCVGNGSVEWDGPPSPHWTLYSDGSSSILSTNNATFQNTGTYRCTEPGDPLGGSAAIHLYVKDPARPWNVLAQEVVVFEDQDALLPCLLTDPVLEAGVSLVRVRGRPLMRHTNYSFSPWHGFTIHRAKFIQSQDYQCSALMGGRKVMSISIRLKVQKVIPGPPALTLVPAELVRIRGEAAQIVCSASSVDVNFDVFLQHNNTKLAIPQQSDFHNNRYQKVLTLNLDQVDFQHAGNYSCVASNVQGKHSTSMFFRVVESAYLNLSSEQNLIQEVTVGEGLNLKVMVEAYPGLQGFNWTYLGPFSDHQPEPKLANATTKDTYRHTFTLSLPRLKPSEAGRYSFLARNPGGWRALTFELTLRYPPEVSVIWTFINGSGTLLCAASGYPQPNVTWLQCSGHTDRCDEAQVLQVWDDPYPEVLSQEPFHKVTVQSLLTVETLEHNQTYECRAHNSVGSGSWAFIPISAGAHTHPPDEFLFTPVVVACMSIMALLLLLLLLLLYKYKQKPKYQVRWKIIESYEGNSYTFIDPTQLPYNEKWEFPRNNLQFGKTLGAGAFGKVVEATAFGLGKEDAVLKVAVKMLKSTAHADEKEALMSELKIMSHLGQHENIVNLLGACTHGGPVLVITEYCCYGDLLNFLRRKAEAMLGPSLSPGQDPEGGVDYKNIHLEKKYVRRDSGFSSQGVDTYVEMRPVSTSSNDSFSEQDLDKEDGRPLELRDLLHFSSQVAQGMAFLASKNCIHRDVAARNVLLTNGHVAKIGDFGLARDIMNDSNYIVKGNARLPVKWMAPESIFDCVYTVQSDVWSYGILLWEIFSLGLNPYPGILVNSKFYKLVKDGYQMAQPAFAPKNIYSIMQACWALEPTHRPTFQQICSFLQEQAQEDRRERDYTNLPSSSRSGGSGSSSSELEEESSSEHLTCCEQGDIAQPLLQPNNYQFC
T2 sequence (P10721 26-976): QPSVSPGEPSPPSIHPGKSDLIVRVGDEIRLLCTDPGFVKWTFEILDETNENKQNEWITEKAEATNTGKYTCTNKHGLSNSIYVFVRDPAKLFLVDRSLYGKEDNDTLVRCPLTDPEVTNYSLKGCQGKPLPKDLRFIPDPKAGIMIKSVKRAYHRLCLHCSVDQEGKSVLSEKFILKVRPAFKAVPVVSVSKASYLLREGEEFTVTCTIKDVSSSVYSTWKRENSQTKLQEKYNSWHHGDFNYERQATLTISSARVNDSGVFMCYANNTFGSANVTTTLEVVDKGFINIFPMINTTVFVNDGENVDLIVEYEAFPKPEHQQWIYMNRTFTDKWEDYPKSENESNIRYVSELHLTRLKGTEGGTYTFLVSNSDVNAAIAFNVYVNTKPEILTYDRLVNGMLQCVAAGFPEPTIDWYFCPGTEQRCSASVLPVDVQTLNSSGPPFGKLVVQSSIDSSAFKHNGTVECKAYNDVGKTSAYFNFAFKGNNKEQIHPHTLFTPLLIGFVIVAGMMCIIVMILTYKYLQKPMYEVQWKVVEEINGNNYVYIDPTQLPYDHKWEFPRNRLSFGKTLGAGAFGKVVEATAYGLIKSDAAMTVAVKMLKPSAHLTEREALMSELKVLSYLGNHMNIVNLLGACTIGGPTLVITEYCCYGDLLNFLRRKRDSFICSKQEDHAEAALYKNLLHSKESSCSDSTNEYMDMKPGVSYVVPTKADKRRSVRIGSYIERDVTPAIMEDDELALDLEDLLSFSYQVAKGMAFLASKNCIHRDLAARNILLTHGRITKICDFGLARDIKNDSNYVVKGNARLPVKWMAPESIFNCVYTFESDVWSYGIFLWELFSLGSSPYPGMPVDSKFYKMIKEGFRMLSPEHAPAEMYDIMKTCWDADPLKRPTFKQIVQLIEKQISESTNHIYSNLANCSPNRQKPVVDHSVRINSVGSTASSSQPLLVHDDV
T3 sequence (P09619 33-1106): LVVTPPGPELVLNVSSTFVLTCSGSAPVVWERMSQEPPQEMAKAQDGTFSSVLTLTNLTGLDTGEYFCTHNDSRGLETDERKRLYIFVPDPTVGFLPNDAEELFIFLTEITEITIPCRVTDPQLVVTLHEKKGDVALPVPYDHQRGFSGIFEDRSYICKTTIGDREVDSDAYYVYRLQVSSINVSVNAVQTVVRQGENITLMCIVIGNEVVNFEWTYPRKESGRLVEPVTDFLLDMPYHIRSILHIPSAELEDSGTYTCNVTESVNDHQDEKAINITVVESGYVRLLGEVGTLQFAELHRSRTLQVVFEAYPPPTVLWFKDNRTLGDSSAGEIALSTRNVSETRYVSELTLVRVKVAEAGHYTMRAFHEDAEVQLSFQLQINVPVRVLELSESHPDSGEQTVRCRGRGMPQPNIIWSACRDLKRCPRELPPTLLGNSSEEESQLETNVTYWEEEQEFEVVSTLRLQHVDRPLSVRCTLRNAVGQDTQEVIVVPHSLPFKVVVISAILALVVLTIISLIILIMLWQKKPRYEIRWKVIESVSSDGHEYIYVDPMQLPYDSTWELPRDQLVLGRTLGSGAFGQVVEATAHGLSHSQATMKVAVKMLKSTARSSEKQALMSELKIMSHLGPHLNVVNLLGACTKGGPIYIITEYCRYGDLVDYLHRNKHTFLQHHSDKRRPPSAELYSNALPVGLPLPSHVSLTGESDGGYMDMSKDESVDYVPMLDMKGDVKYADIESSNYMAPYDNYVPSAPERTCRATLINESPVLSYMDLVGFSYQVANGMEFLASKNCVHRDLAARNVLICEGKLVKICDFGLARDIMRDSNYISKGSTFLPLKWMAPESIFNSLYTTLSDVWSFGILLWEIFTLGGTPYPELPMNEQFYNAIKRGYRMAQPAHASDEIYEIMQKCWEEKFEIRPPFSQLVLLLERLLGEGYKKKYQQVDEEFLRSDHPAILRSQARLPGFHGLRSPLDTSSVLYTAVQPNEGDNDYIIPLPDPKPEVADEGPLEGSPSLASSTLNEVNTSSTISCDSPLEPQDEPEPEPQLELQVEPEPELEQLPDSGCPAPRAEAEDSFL

In general, Kd refers to a measure of binding affinity in units of concentration. As usually defined, the IC50 is the concentration that gives 50% inhibition. On to `O[C@@H]1CCCC[C@H]1Nc1nc2ccc(Cn3cnc4cc(-c5nn[nH]n5)cnc43)cc2s1` [Example 93, (1R,2R)-2-((6-((6-(2H-tetrazol-5-yl)-3H-imidazo[4,5-b]pyridin-3-yl)methyl)benzo[d]thiazol-2-yl)amino)cyclohexanol], for which the Kd at FLT3 is 200 to 1000 nM; on KIT, at most 100 nM; on PDGFRβ, at most 50 nM; on CSF1R [1], 5 to 20 nM. Besides, the figures for the IC50 with M-NFS-60 cells (setting [3]) and at CSF1R [2] (setting [4]) were over 1500 nM and over 500 nM, respectively.
With `COc1cc2ncn(Cc3ccc4nc(N[C@@H]5c6ccccc6C[C@@H]5O)sc4c3)c2cc1OC` [Example 10, (1R,2S)-1-((6-((5,6-dimethoxy-1H-benzo[d]imidazol-1-yl)methyl)benzo[d]thiazol-2-yl)amino)-2,3-dihydro-1H-inden-2-ol], the Kd at FLT3 lay within 1000 to 5000 nM; on KIT, 500 to 2000 nM; at PDGFRβ it was 50 to 500 nM; on CSF1R [1], 5 to 20 nM. Further, the figures for the IC50 in the assay with M-NFS-60 cells (setting [3]) and at CSF1R [2] (setting [4]) were 400 to 1500 nM and 200 to 500 nM, respectively.
For the compound `Cn1nnc(-c2cnc3c(c2)ncn3Cc2ccc3nc(N[C@@H]4CCCC[C@H]4O)sc3c2)n1` [Example 94, (1R,2R)-2-((6-((6-(2-methyl-2H-tetrazol-5-yl)-3H-imidazo[4,5-b]pyridin-3-yl)methyl)benzo[d]thiazol-2-yl)amino)cyclohexanol], the Kd fell in the range of 200 to 1000 nM at FLT3, 100 to 500 nM at KIT, 50 to 500 nM at PDGFRβ and 5 to 20 nM at CSF1R [1]. Also, the IC50 in the assay on M-NFS-60 cells (setting [3]) and at CSF1R [2] (setting [4]) was at most 50 nM in each case.
`COc1ccc2c(c1)ncn2Cc1ccc2nc(N[C@@H]3CCCC[C@H]3O)sc2c1` [Example 68, (1R,2R)-2-((6-((5-methoxy-1H-benzo[d]imidazol-1-yl)methyl)benzo[d]thiazol-2-yl)amino)cyclohexanol]: the Kd at FLT3 was in the range of 1000 to 5000 nM; on KIT it was 100 to 500 nM; on PDGFRβ, 50 to 500 nM; at CSF1R [1] it was 5 to 20 nM. Moreover, the IC50 in the assay with M-NFS-60 cells (setting [3]) and at CSF1R [2] (setting [4]) was at most 50 nM throughout.
Take `COc1cc2ncn(Cc3ccc4nc(NC5CCOCC5)sc4c3)c2cc1OC` [Example 15, 6-((5,6-dimethoxy-1H-benzo[d]imidazol-1-yl)methyl)-N-(tetrahydro-2H-pyran-4-yl)benzo[d]thiazol-2-amine]: the equilibrium dissociation constant (Kd) on FLT3 was over 5000 nM; at KIT it was 500 to 2000 nM; on PDGFRβ, over 2000 nM; at CSF1R [1], 20 to 50 nM. For the same compound, the results for the IC50 with M-NFS-60 cells (setting [3]) and on CSF1R [2] (setting [4]) were over 1500 nM and 200 to 500 nM, respectively.
For `OCCOc1ccn2c(Cc3ccc4nc(N[C@@H]5CCCC[C@H]5O)sc4c3)cnc2c1` [Example 135, (1R,2R)-2-((6-((7-(2-hydroxyethoxy)imidazo[1,2-a]pyridin-3-yl)methyl)benzo[d]thiazol-2-yl)amino)cyclohexanol], the Kd is over 5000 nM at FLT3 (competition binding), 500 to 2000 nM at KIT (competition binding), 500 to 2000 nM on PDGFRβ (competition binding) and 5 to 20 nM at CSF1R [1] (competition binding). The IC50 fell in the range of 50 to 400 nM with M-NFS-60 cells (M-NFS-60 cell proliferation) and 50 to 200 nM on CSF1R [2] (HEK293 cells, M-CSF stimulated CSF1R phosphorylation, MSD).
Regarding `Nc1nc2cccnc2n1Cc1ccc2nc(N[C@@H]3CCCC[C@H]3O)sc2c1` [Example 26, 3-((2-(((1R,2R)-2-hydroxycyclohexyl)amino)benzo[d]thiazol-6-yl)methyl)-3H-imidazo[4,5-b]pyridin-2-aminium acetic acid], the Kd on FLT3 is 200 to 1000 nM; on KIT, over 2000 nM; at PDGFRβ, over 2000 nM; on CSF1R [1], 5 to 20 nM. Moreover, the IC50 in the assay on M-NFS-60 cells (setting [3]) is over 1500 nM; at CSF1R [2] (setting [4]) it was over 500 nM.
As for `COc1cc2ncn(Cc3ccc4nc(NCc5ccccc5)sc4c3)c2cc1OC` [Example 13, N-benzyl-6-((5,6-dimethoxy-1H-benzo[d]imidazol-1-yl)methyl)benzo[d]thiazol-2-amine], the equilibrium dissociation constant (Kd) at FLT3 was in the range of 1000 to 5000 nM; on KIT, 100 to 500 nM; on PDGFRβ it was 50 to 500 nM; at CSF1R [1], 5 to 20 nM. The IC50 with M-NFS-60 cells (setting [3]) lay in the range of 400 to 1500 nM; at CSF1R [2] (setting [4]), 50 to 200 nM.
